Test results from patent US9499535B2, “Kinase inhibitors” (ORIGENIS GMBH, priority 2011, dated 2016).

The molecules below were run against T1, SYK kinase (Homo sapiens, UniProt P43405) (assay: SYK assay (OMNIA Kinase Assay, Invitrogen)). Conditions: apparent Ki calculated from the IC50 using the Cheng-Prusoff equation; 1 mM ATP, 10 μM Peptide Substrate; read-out: SYK Activities: Ki.
T1 construct: purchased Invitrogen, Carlsbad
Assay type: biochemical
Experimental: In the assay OMNIA® KINASE ASSAY by Invitrogen Corporation (Carlsbad) the effect of invention of a compound on the phosphorylation is determined by measurement of fluorescence intensity of a chelation-enhanced fluorophore called SOX. Upon phosphorylation of the peptide by the kinase of interest, Mg2+ is chelated to form a bridge between the SOX moiety and the phosphate group that is transferred to the specific tyrosine on the peptide. The fluorescence intensity is directly proportional to the amount of peptide phosphorylation.
To the wells of an 384 well small volume plate (Greiner, Frickenhausen) are added (i) the compound under test in 5% DMSO/distilled water (2 μl), (ii) 16 μl of the master mix containing ATP, DTT, Kinase Reaction Buffer, Omina Peptide Substrate Tyr 7 resulting in a final concentration of 1 mM ATP, 0.2 mM DTT and 10 μM Peptide Substrate.
The Master Mix and the assay plate was incubated to reaction temperature before the measurement (30° C.). The reaction was started with addition of (iii) 2 μl 4 μg/ml SYK kinase (Invitrogen, Carlsbad). During measurement fluorescence intensitiy readings were collected using a TECAN M1000 at a wavelength of λex 360/λem 485 nm every 30 s for 30 minutes. The reaction velocity was plotted versus the inhibitor concentration to determine the IC50 using XLFit 5.0 (IDBS, Guildford) to fit to a sigmoidal dose response curve, and the apparent Ki values were calculated from the IC50 using the Cheng-Prusoff equation (Cheng, Y.; Prusoff, W. H. Biochem. Pharmacol. 22, 3099-3108, 1973).
In the case of `COc1ccc2nc(Nc3cccc(OC)c3OC)c3n[nH]cc3c2c1` [Example #331, N-(2,3-dimethoxyphenyl)-8-methoxy-2H-pyrazolo[3,4-c]quinolin-4-amine], the Ki is reported as 0.1 to 1 µM.
For `c1ccc2c(c1)nc(Nc1ccc3[nH]ccc3c1)c1n[nH]cc12` [Example #82, (1H-Indol-5-yl)-(2H-pyrazolo[3,4-c]quinolin-4-yl)-amine], the Ki was 0.1 to 1 µM.
Molecule `c1ccc2c(c1)nc(Nc1ccc3[nH]ncc3c1)c1n[nH]cc12` [Example #4, (1H-Indazol-5-yl)-(2H-pyrazolo[3,4-c]quinolin-4-yl)-amine] has a Ki of 0.1 to 1 µM.
Molecule `COc1ccc2nc(Nc3cc(C)cc(C)n3)c3n[nH]cc3c2c1` [Example #156, (4,6-Dimethyl-pyridin-2-yl)-(8-methoxy-2H-pyrazolo[3,4-c]quinolin-4-yl)-amine] has a Ki of 0.1 to 1 µM.
Work on `COc1ccc(Nc2nc3cccnc3c3c[nH]nc23)cc1OC` [Example #123, (3,4-Dimethoxy-phenyl)-(2H-2,3,5,9-tetraaza-cyclopenta[a]naphthalen-4-yl)-amine] yielded a Ki of 0.01 to 0.1 µM.
With `COC(=O)c1scc2c1nc(Nc1ccc(OC)c(OC)c1)c1n[nH]cc12` [Example #275, 4-((3,4-dimethoxyphenyl)amino)-2H-pyrazolo[4,3-d]thieno[3,4-b]pyridine-6-carboxylic acid methyl ester] the Ki was 0.1 to 1 µM.
`CN1CCN(c2ccc(Nc3nc4ccccc4c4c[nH]nc34)cc2)CC1` [Example #26, [4-(4-Methyl-piperazin-1-yl)-phenyl]-(2H-pyrazolo[3,4-c]quinolin-4-yl)-amine] showed a Ki of 0.1 to 1 µM.
`COc1ccc2nc(Nc3cc(F)cc(F)c3)c3n[nH]cc3c2c1` [Example #315, N-(3,5-difluorophenyl)-8-methoxy-2H-pyrazolo[3,4-c]quinolin-4-amine] gave a Ki of 0.1 to 1 µM.
Molecule `COc1ccc2nc(Nc3ccc(-c4ccc(C(=O)O)cc4)cc3)c3n[nH]cc3c2c1` [Example #288, 4′-((8-methoxy-2H-pyrazolo[3,4-c]quinolin-4-yl)amino)-[1,1′-biphenyl]-4-carboxylic acid] has a Ki of 0.1 to 1 µM.
For `COc1ccc(Nc2nc3ccccc3c3c([N+](=O)[O-])[nH]nc23)cc1OC` [Example #213, (3,4-Dimethoxy-phenyl)-(1-nitro-2H-pyrazolo[3,4-c]quinolin-4-yl)-amine], the Ki was 0.1 to 1 µM.
`c1ccc2c(c1)nc(Nc1ccc3cn[nH]c3c1)c1n[nH]cc12` [Example #6, (1H-Indazol-6-yl)-(2H-pyrazolo[3,4-c]quinolin-4-yl)-amine] gave a Ki of 0.01 to 0.1 µM.
With `COc1ccc2nc(Nc3ccc(N4CCOCC4)cc3C)c3n[nH]cc3c2c1` [Example #191, (8-Methoxy-2H-pyrazolo[3,4-c]quinolin-4-yl)-(2-methyl-4-morpholin-4-yl-phenyl)-amine] the Ki was 0.1 to 1 µM.
`COc1ccc2nc(Nc3ccc(N4CCCC4)cc3)c3n[nH]cc3c2c1` [Example #79, (8-Methoxy-2H-pyrazolo[3,4-c]quinolin-4-yl)-(4-pyrrolidin-1-yl-phenyl)-amine] showed a Ki of 0.1 to 1 µM.
`COc1ccc2nc(Nc3cccc(S(F)(F)(F)(F)F)c3)c3n[nH]cc3c2c1` [Example #309, 8-methoxy-N-(3-(pentafluorosulfanyl)phenyl)-2H-pyrazolo[3,4-c]quinolin-4-amine] was tested, and the Ki was 0.1 to 1 µM.
Molecule `c1cncc(Nc2nc3ccccc3c3cn[nH]c23)c1` [Example #23, (3H-Pyrazolo[3,4-c]quinolin-4-yl)-pyridin-3-yl-amine] has a Ki of 0.1 to 1 µM.
In the case of `Cn1ncc2ccc(Nc3nc4ccc(Br)cc4c4c[nH]nc34)cc21` [Example #35, (8-Bromo-2H-pyrazolo[3,4-c]quinolin-4-yl)-(1-methyl-1H-indazol-6-yl)-amine], the Ki is reported as 0.1 to 1 µM.
Molecule `Fc1ccc2c(c1)nc(Nc1ccc(N3CCOCC3)cc1)c1[nH]ncc12` [Example #335, 7-fluoro-N-(4-morpholinophenyl)-3H-pyrazolo[3,4-c]quinolin-4-amine] has a Ki of 0.01 to 0.1 µM.
In the case of `COc1ccc(Nc2nc3ccc(OC)cc3c3c[nH]nc23)c(OC)c1` [Example #332, N-(2,4-dimethoxyphenyl)-8-methoxy-2H-pyrazolo[3,4-c]quinolin-4-amine], the Ki is reported as 0.1 to 1 µM.
In the case of `COc1cccc(Nc2nc3ccc(OC)cc3c3c[nH]nc23)c1` [Example #60, (3-Methoxy-phenyl)-(8-methoxy-2H-pyrazolo[3,4-c]quinolin-4-yl)-amine], the Ki is reported as 0.01 to 0.1 µM.
With `Brc1ccc2nc(Nc3ccc4[nH]ccc4c3)c3n[nH]cc3c2c1` [Example #99, (8-Bromo-2H-pyrazolo[3,4-c]quinolin-4-yl)-(1H-indol-5-yl)-amine] the Ki was 0.1 to 1 µM.
For `COc1ccc2nc(Nc3ccc(NC(=O)c4ccc(F)cc4)cc3)c3n[nH]cc3c2c1` [Example #358, 4-fluoro-N-(4-((8-methoxy-2H-pyrazolo[3,4-c]quinolin-4-yl)amino)phenyl)benzamide], the Ki was under 0.01 µM.
For `COc1ccc2nc(Nc3ccc4[nH]ccc4c3)c3[nH]ncc3c2c1` [Example #72, (1H-Indol-5-yl)-(8-methoxy-3H-pyrazolo[3,4-c]quinolin-4-yl)-amine], the Ki was 0.1 to 1 µM.
`COc1ccc(Nc2nc3ccccc3c3c[nH]nc23)cn1` [Example #25, (6-Methoxy-pyridin-3-yl)-(2H-pyrazolo[3,4-c]quinolin-4-yl)-amine] was tested, and the Ki was 0.1 to 1 µM.
`COc1ccc2nc(Nc3ccc(Oc4ccccc4)cc3)c3n[nH]cc3c2c1` [Example #159, (8-Methoxy-2H-pyrazolo[3,4-c]quinolin-4-yl)-(4-phenoxy-phenyl)-amine] showed a Ki of 0.01 to 0.1 µM.
Work on `COc1ccc2nc(Nc3ccc(N(C)C)c(C)c3)c3n[nH]cc3c2c1` [Example #178, N4-(8-Methoxy-2H-pyrazolo[3,4-c]quinolin-4-yl)-2,N1,N1-trimethyl-benzene-1,4-diamine] yielded a Ki of 0.01 to 0.1 µM.
`c1ccc2c(c1)nc(Nc1ccc3c(c1)OCO3)c1n[nH]cc12` [Example #22, Benzo[1,3]dioxol-5-yl-(2H-pyrazolo[3,4-c]quinolin-4-yl)-amine] gave a Ki of 0.1 to 1 µM.
`CN1CCCN(c2ccc(Nc3nc4ccccc4c4c[nH]nc34)cc2)CC1` [Example #27, [4-(4-Methyl-[1,4]diazepan-1-yl)-phenyl]-(2H-pyrazolo[3,4-c]quinolin-4-yl)-amine] gave a Ki of 0.1 to 1 µM.
Work on `COc1ccc2nc(Nc3ccc(F)c(F)c3)c3n[nH]cc3c2c1` [Example #311, N-(3,4-difluorophenyl)-8-methoxy-2H-pyrazolo[3,4-c]quinolin-4-amine] yielded a Ki of 0.01 to 0.1 µM.
Molecule `CN1CCN(c2ccc(Nc3nc4ccccc4c4c(C(F)(F)F)[nH]nc34)cc2)CC1` [Example #211, [4-(4-Methyl-piperazin-1-yl)-phenyl]-(1-trifluoromethyl-2H-pyrazolo[3,4-c]quinolin-4-yl)-amine] has a Ki of 0.1 to 1 µM.
With `O=C1COc2ccc(Nc3nc4cc(F)ccc4c4cn[nH]c34)cc2N1` [Example #334, 6-((7-fluoro-3H-pyrazolo[3,4-c]quinolin-4-yl)amino)-2H-benzo[b][1,4]oxazin-3(4H)-one] the Ki was 0.01 to 0.1 µM.
`COc1ccc(Nc2nc3cc(F)ccc3c3cn[nH]c23)cc1OC` [Example #336, N-(3,4-dimethoxyphenyl)-7-fluoro-3H-pyrazolo[3,4-c]quinolin-4-amine] gave a Ki of 0.01 to 0.1 µM.
For `COc1ccc2nc(Nc3ccc(NC(=O)Nc4cccc(C)c4)cc3)c3n[nH]cc3c2c1` [Example #289, 1-(4-((8-methoxy-2H-pyrazolo[3,4-c]quinolin-4-yl)amino)phenyl)-3-(m-tolyl)urea], the Ki was 0.01 to 0.1 µM.
In the case of `N#Cc1ccc2nc(Nc3ccc(N4CCOCC4)cc3)c3n[nH]cc3c2c1` [Example #217, 4-(4-Morpholin-4-yl-phenylamino)-2H-pyrazolo[3,4-c]quinoline-8-carbonitrile], the Ki is reported as under 0.01 µM.
Work on `c1ccc2cc(Nc3nc4ccccc4c4cn[nH]c34)ncc2c1` [Example #30, Isoquinolin-3-yl-(3H-pyrazolo[3,4-c]quinolin-4-yl)-amine] yielded a Ki of 0.1 to 1 µM.
Work on `Cc1[nH]nc2c(Nc3ccc4cn[nH]c4c3)nc3cc(C#N)ccc3c12` [Example #227, 4-(1H-Indazol-6-ylamino)-1-methyl-2H-pyrazolo[3,4-c]quinoline-7-carbonitrile] yielded a Ki of 0.1 to 1 µM.
`Brc1ccc2nc(Nc3ccc(N4CCCCC4)cc3)c3n[nH]cc3c2c1` [Example #83, (8-Bromo-2H-pyrazolo[3,4-c]quinolin-4-yl)-(4-piperidin-1-yl-phenyl)-amine] showed a Ki of 0.1 to 1 µM.
Work on `COc1ccc(Nc2nc3cc(C#N)ccc3c3c(C)[nH]nc23)cc1OC` [Example #226, 4-(3,4-Dimethoxy-phenylamino)-1-methyl-2H-pyrazolo[3,4-c]quinoline-7-carbonitrile] yielded a Ki of under 0.01 µM.
`COc1cc2nc(Nc3ccc(NC(=O)Nc4cccc(C)c4)cc3)c3n[nH]cc3c2cc1OC` [Example #299, 1-(4-((7,8-dimethoxy-2H-pyrazolo[3,4-c]quinolin-4-yl)amino)phenyl)-3-(m-tolyl)urea] showed a Ki of 0.1 to 1 µM.
`COc1ccc(Nc2nc3snc(C)c3c3c[nH]nc23)cc1OC` [Example #218, (3,4-Dimethoxy-phenyl)-(1-methyl-7H-3-thia-2,4,6,7-tetraaza-as-indacen-5-yl)-amine] gave a Ki of 0.1 to 1 µM.
`COc1ccc2nc(Nc3nc(C)cs3)c3n[nH]cc3c2c1` [Example #157, (8-Methoxy-2H-pyrazolo[3,4-c]quinolin-4-yl)-(4-methyl-thiazol-2-yl)-amine] was tested, and the Ki was 0.1 to 1 µM.
